In patent US6875578B2, “System for cell-based screening” (priority 1997, dated 2005):
“Also recorded” adds a separate entry of the source.

What was measured:
[1] = tested on: p38 MAPK and NF-κB pathways; assay: Dual labeling assay of the p38 MAPK and NF-κB pathways; type: cell-based; details: added alone; two different cell types
From the text: The assay we present here measures, as one of its parameters, p38 activation using immunolocalization of the phosphorylated form of p38 in toxin-treated cells. The assay was developed to be flexible enough to include the simultaneous measurement of other parameters within the same individual cells. Because the signal transduction pathway mediated by the transcription factor NF-κB is also known to be involved in the cell stress response, we included the activation of NF-κB as a second parameter in the same assay.
Multiple cell types, model toxins, and antibodies were tested, and significant stimulation of both pathways was measured in a high-content mode. The phospho-p38 antibodies used in this study were purchased from Sigma Chemical Company (St. Louis, Mo.). We report that at least two cell stress signaling pathways can not only be measured simultaneously, but are differentially responsive to classes of model toxins.

[2] = tested on: microtubule arrays (tubulin-GFP chimera); assay: Microtubule disruption assay, LLCPK cells with tubulin-GFP biosensor; type: cell-based, pig; details: 10-500 nM, 12 hour time point
Experimental: For microtubule disruption assays, LLCPK cells stably transfected with a tubulin-GFP biosensor plasmid were plated on 96 well cell culture dishes at 50-60% confluence and cultured overnight at 37° C., 5% CO2. […] The cells were then observed with the cell screening system described above, at a 12 hour time point.

[3] = tested on: caspase-3; assay: Caspase-3 biosensor apoptosis assay, BHK cells; type: cell-based; details: BHK cells transfected with the caspase 3 biosensor
Experimental: (§1) For DNA transfection, BHK cells and MCF-7 cells were cultured to 50-70% confluence in 6 well plates containing 3 ml of minimal Eagle's medium (MEM) with 10% fetal calf serum, 1 mM L-glutamine, 50 μg/ml streptomycin, 50 μg/ml penicillin, 0.1 mM non-essential amino acids, 1 mM sodium pyruvate and 10 μg/ml of bovine insulin (for MCF-7 cell only) at 37° C. in a 5% CO2 incubator for about 36 hours. The cells were washed with serum free MEM media and incubated for 5 hours with 1 ml of transfection mixture containing 1 μg of the appropriate plasmid and 4 μg of lipofectimine (BRL) in the serum free MEM media. Subsequently, the transfection medium was removed and replaced with 3 ml of normal culture media. The transfected cells were maintained in growth medium for at least 16 hours before performing selection of the stable cells based on standard molecular biology methods (Ausubel. et al 1995).
For apoptosis assays, the cells (BHK, MCF-7) stably transfected with the appropriate protease biosensor expression vector were plated on tissue culture treated 96-well plates at 50-60% confluence and cultured overnight at 37° C., 5% CO2. […]
(§2) The biosensor response is measured by quantitating the effective cytoplasm-to-nuclear translocation of the signal (see above). […]

[4] = tested on: caspase-3; details: MCF-7 cells; accompanied by cleavage of PARP; cited from earlier work
[5] = tested on: caspase-3; assay: Caspase-3 biosensor apoptosis assay, MCF-7 cells; type: cell-based; details: MCF-7 cells
Experimental: as §1
For apoptosis assays, the cells (BHK, MCF-7) stably transfected with the appropriate protease biosensor expression vector were plated on tissue culture treated 96-well plates at 50-60% confluence and cultured overnight at 37° C., 5% CO2. Varying concentrations of cis-platin, staurosporine, or paclitaxel in normal culture media were freshly prepared from stock and added to cell culture dishes to replace the old culture media. The cells were then observed with the cell screening system of the present invention at the indicated time points either as live cell experiments or as fixed end-point experiments.
This biosensor is restricted to the cytoplasm by the reactant target sequence. The reactant target sequence is the annexin II cytoskeletal binding domain ([…]) (SEQ ID NO:124) (FIG. 29C) (Eberhard et al. 1997. Mol. Biol. Cell 8:293a). The enzyme recognition site corresponds to two copies of the amino acid sequence DEVD (SEQ ID NO:60) (FIG. 29B), which serves as the recognition site of caspase-3. […]
as §2

[6] = tested on: MCF-7 cells; assay: Apoptosis mitochondrial mass/potential, MCF-7 cells; type: cell-based; details: 30 hours
Experimental: (§3) Cells were plated into 96-well plates at densities of 3×10^3 to 1×10^4 cells/well. The following day apoptotic inducers were added at the indicated concentrations and cells were incubated for the indicated time periods (usually 16-30 hours). Cells were stained with 5 μg/ml Hoechst (Molecular Probes, Inc.) and 750 nM MITOTRACKER™ Red (CMXRos, Molecular Probes, Inc.) in fresh medium and incubated for 30 minutes at 37° C. Cells were washed in HBSS and fixed with 3.7% formaldehyde in HBSS at room temperature. Plates were washed with HBSS and permeabilized with 0.5% v/v TRITON™ X-100 in HBSS at room temperature. Cells were washed 2× with HBSS at room temperature and the plate was sealed. For dual labeling of mitochondria, cells were treated with 200 nM MITOTRACKER™ Green and 200 nM MITOTRACKER™ Red for 0.5 hours before fixation.
(§4) The mitochondrial membrane potential is measured by labeling mitochondria with both MITOTRACKER™ Green FM and MITOTRACKER™ Red (Molecular Probes, mc). MITOTRACKER™ Red labeling is proportional to both mass and membrane potential. MITOTRACKER™ Green FM labeling is proportional to mass. The ratio of MITOTRACKER™ Red signal to the MITOTRACKER™ Green FM signal provides a measure of mitochondrial membrane potential (Poot and Pierce, 1999). This ratio normalizes the […]. […]

[7] = tested on: L929 cells; assay: Apoptosis actin reorganization (f-actin content), L929 cells; type: cell-based, mouse; details: 30 hours
Experimental: (§5) Cells were plated in 96-well plates at densities of 3×10^3 to 1×10^4 cells/well. The following day apoptotic inducers were added at indicated concentrations. Cells were incubated for the indicated time periods (usually 16-30 hours). The next day the medium was removed and cells were stained with 5 μg/ml Hoechst (Molecular Probes, Inc.) in fresh medium and incubated for 30 minutes at […]. Cells were washed in HBSS and fixed with 3.7% formaldehyde in HBSS at room temperature. Plates were washed with HBSS and permeabilized with 0.5% v/v Triton X-100 in HBSS at room temperature. Plates were washed in HBSS and stained with 100 μl of 1 U/ml of Alexa 488 Phalloidin stock (100 μl/well, Molecular Probes, Inc.). Cells were washed 2×with HBSS at RT and the plate was sealed.
(§6) Quantitation of f-actin content was accomplished by measuring the intensity of phalloidin staining around the nucleus. This was determined to be a reasonable approximation of a full cytoplasmic average of the intensity. The mask used to approximate this cytoplasmic measure was derived from the nuclear mask defined by the Hoechst stain. Derivation was accomplished by combinations of erosions and dilations.

[8] = tested on: BHK cells; assay: Apoptosis mitochondrial mass/potential, BHK cells; type: cell-based; details: 30 hours
Experimental: as §3, §4

[9] = tested on: L929 cells; assay: Apoptosis mitochondrial mass/potential, L929 cells; type: cell-based, mouse; details: 30 hours
Experimental: as §3, §4

[10] = tested on: L929 cells; assay: Apoptosis nuclear morphology, L929 cells; type: cell-based, mouse; details: 30 hours
Experimental: (§7) Cells were plated into 96-well plates at densities of 3×10^3 to 1×10^4 cells/well. The following day apoptotic inducers were added at indicated concentrations and cells were incubated for indicated time periods (usually 16-30 hours). The next day medium was removed and cells were stained with 5 μg/ml Hoechst (Molecular Probes, Inc.) in fresh medium and incubated for 30 minutes at 37° C. Cells were washed in Hank's Balanced Salt Solution (HBSS) and fixed with 3.7% formaldehyde in HBSS at room temperature. Cells were washed 2×with HBSS at room temperature and the plate was sealed.
(§8) Quantitation of changes in nuclear morphology upon induction of apoptosis was accomplished by (1) measuring the effective size of the nuclear region; and (2) measuring the degree of convolution of the perimeter.

[11] = tested on: BHK cells; assay: Apoptosis nuclear morphology, BHK cells; type: cell-based; details: 30 hours
Experimental: as §7, §8

[12] = tested on: MCF-7 cells; assay: Apoptosis nuclear morphology, MCF-7 cells; type: cell-based; details: 30 hours
Experimental: as §7, §8

[13] = tested on: MCF-7 cells; assay: Apoptosis actin reorganization (f-actin content), MCF-7 cells; type: cell-based; details: 30 hours
Experimental: as §5, §6

[14] = tested on: BHK cells; assay: Apoptosis actin reorganization (f-actin content), BHK cells; type: cell-based; details: 30 hours
Experimental: as §5, §6

[15] = tested on: NF-κB; assay: NF-κB immunolocalization in toxin treated 3T3 cells; type: cell-based
From the text: (§9) For further studies, we characterized endogenous NF-κB activation by immunolocalization in toxin treated cells. The NF-κB antibodies used in this study were purchased from Santa Cruz Biotechnology, Inc. (Santa Cruz, Calif.), and secondary antibodies are from Molecular Probes (Eugene, Oreg.).
(§10) For the 3T3 and SNB19 cell types, we determined the effective concentrations that yield response levels of 50% of the maximum (EC50), expressed in units of mass per volume (ng/ml) and units of molarity. Based on molecular weights of 17 kD for both TNFα and IL-1α, the EC50 levels for these two compounds with 3T3 and SNB19 cell types are given in units of molarity in Table 1.
(§11) For these experiments, either 10 or 100 TNFα-treated 3T3 or SNB19 cells/well were tested. On the basis of the standard deviations measured for these samples, and by taking t-values for the student's t-test, we have estimated the minimum detectable doses for each case of cell type, compound, number of cells per well, and for different choices of how many wells are sampled per condition. The latter factor determines the number of degrees of freedom that are provided in the sample of data. Increasing the number of wells from 4 to 16, and increasing the number of cells per well from 10 to 100, improves the minimum detectable doses considerably. […] If the false positive rate is relaxed to 20%, a concentration of approximately half that value can be detected (0.83 ng/ml). One hundred cells can conveniently be sampled over a cell culture surface area of less than 1 mm^2.

[16] = tested on: NF-κB; assay: NF-κB immunolocalization in toxin treated SNB19 cells; type: cell-based; details: based on molecular weights of 17 kD, read-out: EC50 (NF-κB activation)
From the text: as §9, §10
as §11, with “data.” for “data. Increasing the number of wells from 4 to 16, and increasing the number of cells per well from 10 to 100, improves the minimum detectable doses considerably.”, “One hundred cells can conveniently be sampled over a cell culture surface area of less than 1 mm^2.” left out

## COc1ccc(C[C@H]2NC[C@H](O)[C@H]2OC(C)=O)cc1 [Anisomycin]
[1]
  differential response of the p38 MAPK and NF-κB pathways: activators of specific pathways

## C=CC[C@@H](CC/C(C)=C/C=C/CC/C=C\[C@@H]1CSC([C@@H]2C[C@@H]2C)=N1)OC [Curacin A]
[2]
  Response of microtubule arrays: Destabilization

## COC(=O)Nc1nc2ccc(C(=O)c3cccs3)cc2[nH]1 [Nocodazole]
[2]
  Response of microtubule arrays: Destabilization

## CC[C@]1(O)C[C@@H]2CN(CCc3c([nH]c4ccccc34)[C@@](C(=O)OC)(c3cc4c(cc3OC)N(C)[C@H]3[C@@](O)(C(=O)OC)[C@H](OC(C)=O)[C@]5(CC)C=CCN6CC[C@]43[C@@H]65)C2)C1 [Vinblastine]
[2]
  Response of microtubule arrays: Destabilization

## N.N.[Cl][Pt][Cl] [cis-platin]
[3]
  caspase activation reported by the biosensor: accumulation of fluorescence in the nucleus

## COc1cc([C@@H]2c3cc4c(cc3[C@@H](O[C@@H]3O[C@@H]5CO[C@@H](C)O[C@H]5[C@H](O)[C@H]3O)[C@H]3COC(=O)[C@H]23)OCO4)cc(OC)c1O [etoposide]
[4]
  time of peak response in caspase-3 activity after stimulation: 6 h
[5]; 15 h treatment with 100 μM etoposide
  Caspase-3 activity with the caspase biosensor: not detected

## CN[C@@H]1C[C@H]2O[C@@](C)([C@@H]1OC)n1c3ccccc3c3c4c(c5c6ccccc6n2c5c31)C(=O)NC4 [staurosporine]
[6]
  mitochondrial changes (mass / membrane potential): consistent decrease in mitochondrial membrane potential; also recorded: a decrease in membrane potential
[7]
  change in peri-nuclear f-actin content: dose-dependent increases in f-actin content
[7]; listed as Staurosporine
  change in peri-nuclear f-actin content: induced increases in f-actin
[8]
  mitochondrial changes (mass / membrane potential): either a decrease in membrane potential at lower concentrations of staurosporine, or an increase in mass at higher concentrations of staurosporine; also recorded: increases in mitochondrial mass
[9]
  mitochondrial changes (mass / membrane potential): clear increase in mitochondrial mass; also recorded: increases in mitochondrial mass
[10]
  change in nuclear morphology: dose-dependent change in nuclear morphology
[10]; listed as Staurosporine
  change in nuclear morphology: classic nuclear fragmentation
[11]
  change in nuclear morphology: concentration dependent changes
[11]; listed as Staurosporine
  change in nuclear morphology: nuclear condensation at lower doses and nuclear fragmentation at higher doses
[12]
  change in nuclear morphology: nuclear condensation
[13]
  change in peri-nuclear f-actin content: either a decrease or increase depending on the concentration of staurosporine
[13]; listed as Staurosporine
  change in peri-nuclear f-actin content: concentration-dependent response
[14]
  change in peri-nuclear f-actin content: dose-dependent increase in f-actin
[14]; listed as Staurosporine
  change in peri-nuclear f-actin content: induced increases in f-actin
[5]; maximum magnitude
  magnitude of caspase activation relative to comparator: approximately one-half that demonstrated with cis-platin in BHK cells

## IL-1α: model toxin, molecular weight 17 kD
[15]; based on molecular weights of 17 kD
  EC50 (NF-κB activation): 0.24 10^−12 moles/liter
[16]
  EC50: 59 pM
[1]
  differential response of the p38 MAPK and NF-κB pathways: activators of specific pathways

## tumor necrosis factor [TNFα]
[15]
  EC50 value (NF-κB activation): 0.15 ng/mL
[15]; based on molecular weights of 17 kD, read-out: EC50 (NF-κB activation)
  EC50: 8.8 pM
[16]
  EC50: 5.9 pM
[1]
  differential response of the p38 MAPK and NF-κB pathways: activators of specific pathways
